Test results reported in patent US12673945B2, “3-((8-((1H-pyrazol-4-yl)amino)imidazo[1,2-a]pyridin-3-yl)ethinyl)-n-phenylbenzamide derivative, method for preparing same, and pharmaceutical composition containing same as active ingredient for prevention or treatment of cancer” (DAEGU-GYEONGBUK MEDICAL INNOVATION FOUNDATION, priority 2020, dated 2026).

Columns and labels:
Assay in all cases: scanMAX Kinase panel (DiscoverX)
Format in all cases: binding
[1] = biological target: T1, DLK (Homo sapiens, UniProt Q12852)
T1 construct: purchased DiscoverX scanMAX Kinase panel
T1 sequence (Q12852 whole entry): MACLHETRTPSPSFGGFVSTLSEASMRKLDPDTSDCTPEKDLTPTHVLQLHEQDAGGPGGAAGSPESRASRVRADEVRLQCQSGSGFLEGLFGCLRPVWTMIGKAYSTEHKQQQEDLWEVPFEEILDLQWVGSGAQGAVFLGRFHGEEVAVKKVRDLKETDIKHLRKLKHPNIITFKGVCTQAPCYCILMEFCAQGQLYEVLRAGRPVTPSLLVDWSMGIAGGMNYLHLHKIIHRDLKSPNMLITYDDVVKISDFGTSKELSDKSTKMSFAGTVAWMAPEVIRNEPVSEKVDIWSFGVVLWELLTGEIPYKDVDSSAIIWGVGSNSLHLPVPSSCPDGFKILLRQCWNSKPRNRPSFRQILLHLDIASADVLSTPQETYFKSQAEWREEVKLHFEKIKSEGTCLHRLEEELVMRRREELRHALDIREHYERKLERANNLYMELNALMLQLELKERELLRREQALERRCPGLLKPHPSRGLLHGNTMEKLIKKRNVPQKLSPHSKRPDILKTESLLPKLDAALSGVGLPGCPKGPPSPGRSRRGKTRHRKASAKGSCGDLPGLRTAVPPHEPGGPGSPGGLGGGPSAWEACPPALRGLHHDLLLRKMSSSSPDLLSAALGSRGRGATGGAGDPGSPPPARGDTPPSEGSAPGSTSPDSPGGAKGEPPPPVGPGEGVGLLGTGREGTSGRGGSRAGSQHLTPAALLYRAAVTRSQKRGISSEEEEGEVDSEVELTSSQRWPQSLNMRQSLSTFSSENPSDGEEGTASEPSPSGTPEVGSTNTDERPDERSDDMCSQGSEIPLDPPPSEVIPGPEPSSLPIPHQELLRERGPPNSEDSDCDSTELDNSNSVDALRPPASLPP
Description: (§1) Among the example compounds of the present invention, the enzyme (kinase) selectivity of the selected compounds of Examples 1 and 4 was measured by requesting DiscoverX. At this time, the experiment was performed using a panel for scanMAX™ Kinase. The concentration of the drug treated to the enzyme was 1 μM in DMSO, and the percentage control (% control) was determined by the method shown in Equation 1 below. (Example Compound−Positive Control)/(Negative Control−Positive control)×100 [Equation 1]

[2] = biological target: T2, ABL1(H396P)-nonphosphorylated (Homo sapiens, UniProt P00519, H396P); details: read-out: % Cont @ 1 uM
T2 construct: purchased DiscoverX
Description: as §1

[3] = biological target: T3, EGFR(L858R) (Homo sapiens, UniProt P00533, L858R)
T3 construct: purchased DiscoverX scanMAX Kinase panel
Description: as §1

[4] = biological target: T4, GAK (Homo sapiens, UniProt O14976); details: read-out: % Cont @ 1 uM
T4 construct: purchased DiscoverX scanMAX Kinase panel
Description: as §1

[5] = biological target: T5, ABL1(H396P)-phosphorylated (Homo sapiens, UniProt P00519, H396P); details: read-out: % Cont @ 1 uM
T5 construct: purchased DiscoverX
Description: as §1

[6] = biological target: T6, FRK (Homo sapiens, UniProt P42685); details: read-out: % Cont @ 1 uM
T6 construct: purchased DiscoverX scanMAX Kinase panel
T6 sequence (P42685 whole entry): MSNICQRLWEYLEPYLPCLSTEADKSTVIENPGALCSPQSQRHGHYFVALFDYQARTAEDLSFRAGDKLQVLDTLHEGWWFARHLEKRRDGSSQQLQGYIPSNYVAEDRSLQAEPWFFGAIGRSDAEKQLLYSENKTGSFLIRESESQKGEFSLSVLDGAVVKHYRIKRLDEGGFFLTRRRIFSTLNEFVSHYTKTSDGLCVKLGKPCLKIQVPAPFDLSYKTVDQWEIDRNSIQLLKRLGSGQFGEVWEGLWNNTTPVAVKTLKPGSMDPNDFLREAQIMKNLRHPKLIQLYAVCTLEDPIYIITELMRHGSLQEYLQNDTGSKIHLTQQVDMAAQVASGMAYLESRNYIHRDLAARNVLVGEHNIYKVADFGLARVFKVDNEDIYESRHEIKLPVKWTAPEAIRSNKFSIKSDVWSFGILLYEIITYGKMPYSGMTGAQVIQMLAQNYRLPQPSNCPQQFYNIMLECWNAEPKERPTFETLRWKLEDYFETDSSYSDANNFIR
Description: as §1

[7] = biological target: T7, KIT (Homo sapiens, UniProt P10721); details: read-out: % Cont @ 1 uM
T7 construct: purchased DiscoverX scanMAX Kinase panel
Description: as §1

[8] = biological target: T8, EGFR (Homo sapiens, UniProt P00533)
T8 construct: purchased DiscoverX scanMAX Kinase panel
Description: as §1

[9] = biological target: T9, EPHA5 (Homo sapiens, UniProt P54756)
T9 construct: purchased DiscoverX scanMAX Kinase panel
Description: as §1

[10] = tested on: FLT3(ITD)
Description: as §1

[11] = biological target: T10, KIT(D816V) (Homo sapiens, UniProt P10721, D816V); details: read-out: % Cont @ 1 uM
T10 construct: purchased DiscoverX scanMAX Kinase panel
Description: as §1

[12] = biological target: T11, EPHA8 (Homo sapiens, UniProt P29322); details: read-out: % Cont @ 1 uM
T11 construct: purchased DiscoverX scanMAX Kinase panel
Description: as §1

[13] = biological target: T12, FGFR4 (Homo sapiens, UniProt P22455); details: read-out: % Cont @ 1 uM
T12 construct: purchased DiscoverX scanMAX Kinase panel
Description: as §1

[14] = biological target: T13, LIMK1 (Homo sapiens, UniProt P53667); details: read-out: % Cont @ 1 uM
T13 construct: purchased DiscoverX scanMAX Kinase panel
T13 sequence (P53667 whole entry): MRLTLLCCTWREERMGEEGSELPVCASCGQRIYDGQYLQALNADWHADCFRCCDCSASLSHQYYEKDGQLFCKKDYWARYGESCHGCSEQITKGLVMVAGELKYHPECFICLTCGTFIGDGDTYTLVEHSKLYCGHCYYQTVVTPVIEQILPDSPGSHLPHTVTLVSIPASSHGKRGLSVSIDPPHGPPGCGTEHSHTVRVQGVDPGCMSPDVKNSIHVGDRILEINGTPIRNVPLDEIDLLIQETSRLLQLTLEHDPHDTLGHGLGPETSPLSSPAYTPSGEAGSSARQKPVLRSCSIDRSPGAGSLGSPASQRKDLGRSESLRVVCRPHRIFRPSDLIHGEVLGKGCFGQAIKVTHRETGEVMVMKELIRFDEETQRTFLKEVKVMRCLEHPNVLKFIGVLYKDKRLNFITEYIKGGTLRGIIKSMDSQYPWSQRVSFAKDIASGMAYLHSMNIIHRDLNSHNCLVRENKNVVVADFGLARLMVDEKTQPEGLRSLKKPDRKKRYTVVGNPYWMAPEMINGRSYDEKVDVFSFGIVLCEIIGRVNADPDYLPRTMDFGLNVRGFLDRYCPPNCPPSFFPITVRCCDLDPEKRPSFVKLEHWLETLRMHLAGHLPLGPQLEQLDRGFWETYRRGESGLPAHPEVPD
Description: as §1

[15] = biological target: T14, FLT1 (Homo sapiens, UniProt P17948); details: read-out: % Cont @ 1 uM
T14 construct: purchased DiscoverX scanMAX Kinase panel
T14 sequence (P17948 27-1338): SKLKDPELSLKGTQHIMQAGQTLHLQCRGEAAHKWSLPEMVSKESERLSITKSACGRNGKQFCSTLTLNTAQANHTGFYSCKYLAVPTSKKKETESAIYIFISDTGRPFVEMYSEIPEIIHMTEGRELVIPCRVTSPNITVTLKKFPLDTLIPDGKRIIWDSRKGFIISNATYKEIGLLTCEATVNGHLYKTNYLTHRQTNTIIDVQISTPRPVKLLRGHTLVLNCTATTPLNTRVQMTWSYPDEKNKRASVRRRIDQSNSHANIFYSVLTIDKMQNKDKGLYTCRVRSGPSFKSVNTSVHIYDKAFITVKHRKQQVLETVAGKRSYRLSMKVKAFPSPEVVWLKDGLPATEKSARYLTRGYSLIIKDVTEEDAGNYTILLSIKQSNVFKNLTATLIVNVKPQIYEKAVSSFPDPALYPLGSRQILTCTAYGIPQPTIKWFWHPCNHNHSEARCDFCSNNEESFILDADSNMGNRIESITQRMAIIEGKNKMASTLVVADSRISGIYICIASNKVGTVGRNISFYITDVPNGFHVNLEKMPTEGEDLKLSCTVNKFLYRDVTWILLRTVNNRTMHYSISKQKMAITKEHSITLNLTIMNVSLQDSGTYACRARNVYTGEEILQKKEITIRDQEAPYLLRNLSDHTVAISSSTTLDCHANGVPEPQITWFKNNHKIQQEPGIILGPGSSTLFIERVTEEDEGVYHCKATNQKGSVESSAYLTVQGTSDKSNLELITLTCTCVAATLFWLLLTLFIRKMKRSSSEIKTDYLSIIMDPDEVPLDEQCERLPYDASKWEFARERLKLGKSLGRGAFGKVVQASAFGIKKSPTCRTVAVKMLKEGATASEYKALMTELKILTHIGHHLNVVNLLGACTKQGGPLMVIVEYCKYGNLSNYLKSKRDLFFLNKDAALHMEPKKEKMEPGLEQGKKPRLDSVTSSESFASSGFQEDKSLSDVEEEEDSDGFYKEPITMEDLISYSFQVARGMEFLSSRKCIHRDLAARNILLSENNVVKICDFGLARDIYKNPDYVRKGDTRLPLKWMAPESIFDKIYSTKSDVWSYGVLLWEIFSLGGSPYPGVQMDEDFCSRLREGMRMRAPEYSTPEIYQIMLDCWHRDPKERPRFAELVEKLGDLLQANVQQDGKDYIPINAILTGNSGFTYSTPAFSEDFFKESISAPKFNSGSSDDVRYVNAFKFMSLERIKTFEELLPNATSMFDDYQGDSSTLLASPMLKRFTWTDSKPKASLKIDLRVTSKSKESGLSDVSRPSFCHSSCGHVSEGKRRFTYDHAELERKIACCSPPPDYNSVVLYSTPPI
Description: as §1

[16] = biological target: T15, CDC2L1 (Homo sapiens, UniProt P21127); details: read-out: % Cont @ 1 uM
T15 construct: purchased DiscoverX scanMAX Kinase panel
Description: as §1

[17] = biological target: T16, ABL1(Q252H)-phosphorylated (Homo sapiens, UniProt P00519, Q252H); details: read-out: % Cont @ 1 uM
T16 construct: purchased DiscoverX
Description: as §1

[18] = biological target: T17, ZAK (Homo sapiens, UniProt Q9NYL2); details: read-out: % Cont @ 1 uM
T17 construct: purchased DiscoverX scanMAX Kinase panel
Description: as §1

[19] = biological target: T18, BRAF(V600E) (Homo sapiens, UniProt P15056, V600E); details: read-out: % Cont @ 1 uM
T18 construct: purchased DiscoverX scanMAX Kinase panel
Description: as §1

[20] = biological target: T19, p38-alpha (Homo sapiens, UniProt Q16539)
T19 construct: purchased DiscoverX scanMAX Kinase panel
Description: as §1

[21] = biological target: T20, MAP4K2 (Homo sapiens, UniProt Q12851); details: read-out: % Cont @ 1 uM
T20 construct: purchased DiscoverX scanMAX Kinase panel
Description: as §1

[22] = biological target: T21, SIK (Homo sapiens, UniProt P57059)
T21 construct: purchased DiscoverX scanMAX Kinase panel
Description: as §1

[23] = biological target: T22, ERK8 (Homo sapiens, UniProt Q8TD08); details: read-out: % Cont @ 1 uM
T22 construct: purchased DiscoverX scanMAX Kinase panel
T22 sequence (Q8TD08 whole entry): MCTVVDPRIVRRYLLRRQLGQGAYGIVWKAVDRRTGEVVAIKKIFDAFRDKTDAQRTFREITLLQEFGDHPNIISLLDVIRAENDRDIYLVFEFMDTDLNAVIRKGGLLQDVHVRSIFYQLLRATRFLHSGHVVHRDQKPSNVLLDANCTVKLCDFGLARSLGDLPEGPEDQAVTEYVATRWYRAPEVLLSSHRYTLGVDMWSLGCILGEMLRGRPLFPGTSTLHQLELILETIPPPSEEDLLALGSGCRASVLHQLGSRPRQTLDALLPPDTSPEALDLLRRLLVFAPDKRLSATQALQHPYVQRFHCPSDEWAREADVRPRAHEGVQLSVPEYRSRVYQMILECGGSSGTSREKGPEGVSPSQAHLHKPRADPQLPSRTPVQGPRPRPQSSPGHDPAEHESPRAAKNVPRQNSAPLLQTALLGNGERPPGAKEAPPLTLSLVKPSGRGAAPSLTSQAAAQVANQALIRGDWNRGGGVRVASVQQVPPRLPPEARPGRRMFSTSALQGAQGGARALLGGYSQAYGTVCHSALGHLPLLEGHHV
Description: as §1

[24] = biological target: T23, ABL1(Q252H)-nonphosphorylated (Homo sapiens, UniProt P00519, Q252H); details: read-out: % Cont @ 1 uM
T23 construct: purchased DiscoverX
Description: as §1

[25] = biological target: T24, BRK (Homo sapiens, UniProt Q13882); details: read-out: % Cont @ 1 uM
T24 construct: purchased DiscoverX scanMAX Kinase panel
T24 sequence (Q13882 whole entry): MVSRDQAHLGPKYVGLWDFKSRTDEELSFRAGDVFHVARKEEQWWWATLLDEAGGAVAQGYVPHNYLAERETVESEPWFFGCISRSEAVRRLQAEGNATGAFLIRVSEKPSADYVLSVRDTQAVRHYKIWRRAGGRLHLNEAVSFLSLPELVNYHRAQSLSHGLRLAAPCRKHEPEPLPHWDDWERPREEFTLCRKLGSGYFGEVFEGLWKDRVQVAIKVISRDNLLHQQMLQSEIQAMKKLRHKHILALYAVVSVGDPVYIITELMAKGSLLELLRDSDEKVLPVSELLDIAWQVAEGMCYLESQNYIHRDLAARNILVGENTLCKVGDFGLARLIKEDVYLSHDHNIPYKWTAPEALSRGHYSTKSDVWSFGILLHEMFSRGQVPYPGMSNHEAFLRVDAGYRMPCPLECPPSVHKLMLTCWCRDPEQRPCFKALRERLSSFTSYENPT
Description: as §1

[26] = biological target: T25, EGFR(L747-S752del, P753S) (Homo sapiens, UniProt P00533, DEL747-752/P753S)
T25 construct: purchased DiscoverX scanMAX Kinase panel
Description: as §1

[27] = biological target: T26, TIE2 (Homo sapiens, UniProt Q02763); details: read-out: % Cont @ 1 uM
T26 construct: purchased DiscoverX scanMAX Kinase panel
Description: as §1

[28] = biological target: T27, p38-delta (Homo sapiens, UniProt O15264); details: read-out: % Cont @ 1 uM
T27 construct: purchased DiscoverX scanMAX Kinase panel
Description: as §1

[29] = biological target: T28, TXK (Homo sapiens, UniProt P42681); details: read-out: % Cont @ 1 uM
T28 construct: purchased DiscoverX scanMAX Kinase panel
Description: as §1

[30] = biological target: T29, ABL1(Y253F)-phosphorylated (Homo sapiens, UniProt P00519, Y253F); details: read-out: % Cont @ 1 uM
T29 construct: purchased DiscoverX scanMAX Kinase panel
Description: as §1

[31] = biological target: T30, YES (Homo sapiens, UniProt P07947); details: read-out: % Cont @ 1 uM
T30 construct: purchased DiscoverX scanMAX Kinase panel
Description: as §1

[32] = biological target: T31, TESK1 (Homo sapiens, UniProt Q15569); details: read-out: % Cont @ 1 uM
T31 construct: purchased DiscoverX scanMAX Kinase panel
Description: as §1

[33] = biological target: T32, STK35 (Homo sapiens, UniProt Q8TDR2); details: read-out: % Cont @ 1 uM
T32 construct: purchased DiscoverX scanMAX Kinase panel
Description: as §1

[34] = biological target: T33, FLT3(R834Q) (Homo sapiens, UniProt P36888, R834Q); details: read-out: % Cont @ 1 uM
T33 construct: purchased DiscoverX scanMAX Kinase panel
Description: as §1

[35] = biological target: T34, FLT3(D835Y) (Homo sapiens, UniProt P36888, D835Y); details: read-out: % Cont @ 1 uM
T34 construct: purchased DiscoverX scanMAX Kinase panel
Description: as §1

[36] = biological target: T35, CSF1R (Homo sapiens, UniProt P07333); details: read-out: % Cont @ 1 uM
T35 construct: purchased DiscoverX scanMAX Kinase panel
Description: as §1

[37] = biological target: T36, LYN (Homo sapiens, UniProt P07948); details: read-out: % Cont @ 1 uM
T36 construct: purchased DiscoverX scanMAX Kinase panel
Description: as §1

[38] = biological target: T37, TAOK1 (Homo sapiens, UniProt Q7L7X3); details: read-out: % Cont @ 1 uM
T37 construct: purchased DiscoverX scanMAX Kinase panel
Description: as §1

[39] = biological target: T38, IKK-alpha (Homo sapiens, UniProt O15111); details: read-out: % Cont @ 1 uM
T38 construct: purchased DiscoverX scanMAX Kinase panel
T38 sequence (O15111 whole entry): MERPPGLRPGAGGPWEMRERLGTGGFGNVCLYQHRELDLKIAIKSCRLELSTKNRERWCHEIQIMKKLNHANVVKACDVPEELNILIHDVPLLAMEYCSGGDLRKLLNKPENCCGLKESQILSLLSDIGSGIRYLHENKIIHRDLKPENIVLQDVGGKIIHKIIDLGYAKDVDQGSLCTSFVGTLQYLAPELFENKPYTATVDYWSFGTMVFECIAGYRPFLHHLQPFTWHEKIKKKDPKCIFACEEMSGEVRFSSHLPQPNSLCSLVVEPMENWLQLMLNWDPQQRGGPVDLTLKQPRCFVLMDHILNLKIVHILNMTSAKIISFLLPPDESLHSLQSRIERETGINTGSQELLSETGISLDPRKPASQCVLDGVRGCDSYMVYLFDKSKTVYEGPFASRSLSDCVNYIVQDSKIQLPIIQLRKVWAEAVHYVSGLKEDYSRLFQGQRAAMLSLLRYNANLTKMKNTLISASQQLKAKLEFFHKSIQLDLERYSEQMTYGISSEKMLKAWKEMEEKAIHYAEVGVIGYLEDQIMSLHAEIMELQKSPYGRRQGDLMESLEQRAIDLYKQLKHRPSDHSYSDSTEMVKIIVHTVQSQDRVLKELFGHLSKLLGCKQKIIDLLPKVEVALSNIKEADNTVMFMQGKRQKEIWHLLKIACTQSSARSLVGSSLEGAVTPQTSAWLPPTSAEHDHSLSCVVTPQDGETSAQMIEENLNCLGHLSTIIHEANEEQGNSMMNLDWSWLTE
Description: as §1

SMILES | % Cont @ 1 uM [1] [%] | remaining binding at 1 µM [2] [%] | % Cont @ 1 uM [3] [%] | remaining binding at 1 µM [4] [%] | remaining binding at 1 µM [5] [%] | remaining binding at 1 µM [6] [%] | percent of control binding at 1 µM [7] [%] | % Cont @ 1 uM [8] [%] | % Cont @ 1 uM [9] [%] | % Cont @ 1 uM [10] [%] | percent of control binding at 1 µM [11] [%] | remaining binding at 1 µM [12] [%] | remaining binding at 1 µM [13] [%] | percent of control binding at 1 µM [14] [%] | remaining binding at 1 µM [15] [%] | remaining binding at 1 µM [16] [%] | remaining binding at 1 µM [17] [%] | remaining binding at 1 µM [18] [%] | remaining binding at 1 µM [19] [%] | % Cont @ 1 uM [20] [%] | also measured
Cc1cn(-c2cc(NC(=O)c3cc(C#Cc4cnc5c(Nc6cnn(C)c6)cccn45)c(C)cc3F)cc(C(F)(F)F)c2)cn1 [Example 4, 2-fluoro-4-methyl-N-(3-(4-methyl-1H-imidazol-1-yl)-5-(trifluoromethyl)phenyl)-5-((8-((1-methyl-1H-pyrazol-4-yl)amino)imidazo[1,2-a]pyridin-3-yl)ethynyl)benzamide] | 89 | 2.9 | 57 | 80 | 9.6 | 26 | 1.6 | 79 | 26 | 6.6 | 61 | 1.6 | 53 | 75 | 11 | 79 | 14 | 8.1 | 48 | 49 | remaining binding at 1 µM [21]: 70%; % Cont @ 1 uM [22]: 14%; remaining binding at 1 µM [23]: 90%; remaining binding at 1 µM [24]: 4.1%; remaining binding at 1 µM [25]: 78%; % Cont @ 1 uM [26]: 40%; remaining binding at 1 µM [27]: 0.7%; percent of control binding at 1 µM [28]: 92%; remaining binding at 1 µM [29]: 11%; remaining binding at 1 µM [30]: 5.9%; remaining binding at 1 µM [31]: 10%; remaining binding at 1 µM [32]: 100%; remaining binding at 1 µM [33]: 94%; remaining binding at 1 µM [34]: 34%; remaining binding at 1 µM [35]: 22%; remaining binding at 1 µM [36]: 2.5%; percent of control binding at 1 µM [37]: 4.7%; remaining binding at 1 µM [38]: 96%; remaining binding at 1 µM [39]: 35%
Cc1cn(-c2cc(NC(=O)c3cc(C#Cc4cnc5c(Nc6cnn(C)c6)cccn45)c(C)cc3F)cc(C(C)(C)C#N)c2)cn1 [Example 1, N-(3-(2-cyanopropane-2-yl)-5-(4-methyl-1H-imidazol-1-yl)phenyl)-2-fluoro-4-methyl-5-((8-((1-methyl-1H-pyrazol-4-yl)amino)imidazo[1,2-a]pyridin-3-yl)ethynyl)benzamide] | 5.9 | 1.2 | 5.5 | 25 | 0.55 | 1.6 | 0 | 29 | 8.9 | 1.1 | 13 | 0.1 | 2.8 | 33 | 1.4 | 27 | 1.3 | 1.5 | 15 | 0.65 | remaining binding at 1 µM [21]: 2.5%; % Cont @ 1 uM [22]: 2%; remaining binding at 1 µM [23]: 19%; remaining binding at 1 µM [24]: 15%; remaining binding at 1 µM [25]: 13%; % Cont @ 1 uM [26]: 1.3%; remaining binding at 1 µM [27]: 0.4%; percent of control binding at 1 µM [28]: 29%; remaining binding at 1 µM [29]: 1.6%; remaining binding at 1 µM [30]: 0.15%; remaining binding at 1 µM [31]: 2.5%; remaining binding at 1 µM [32]: 33%; remaining binding at 1 µM [33]: 10%; remaining binding at 1 µM [34]: 0.9%; remaining binding at 1 µM [35]: 14%; remaining binding at 1 µM [36]: 0.2%; percent of control binding at 1 µM [37]: 0.5%; remaining binding at 1 µM [38]: 11%; remaining binding at 1 µM [39]: 31%
